{"source": "patent US20230310627A1", "about": "“COMBINATION THERAPY WITH ANTI-TROP-2 ANTIBODIES AND PARP INHIBITORS” (priority 2021, published 2023)", "key": {"colorectal cancer": {"test_system": "colorectal cancer", "conditions": "continuous olaparib administration; cited from earlier work"}, "TNBC xenografts": {"test_system": "TNBC xenografts", "conditions": "nude mice bearing TNBC xenografts; independent of BRCA1/2 mutation status; cited from earlier work"}, "patients with mTNBC": {"test_system": "patients with mTNBC", "assay": "Phase 1b/2 open-label study of SG in combination with talazoparib (NCT04039230)", "format": "in vivo, human", "conditions": "every 21 days", "method": "Study Design: In a Phase 1b/2, open-label study, SG was administered in combination with talazoparib for patients with mTNBC (clinicaltrials.gov#NCT04039230; FIG. 2A). Treatment cycles were continued until unacceptable toxicity or progression of disease at the discretion of the treating physician. Within 4 weeks prior to the first dose of study treatment administration, baseline evaluations were completed which included patient medical and surgical history, a physical examination with vital signs and performance evaluation, laboratories, and tumor assessment imaging. Once on active treatment, patients were administered SG and talazoparib over a 21 day cycle or 28 day cycle. […] All patients were monitored closely over the course of their treatment and NCI CTC v5.0 was used to grade all adverse events and provide dose reduction, delay, or cessation guidelines in the event of treatment-related toxicity. […]\nStudy Population: Patients enrolled were 18 years of age or older with histological or cytological confirmation of TNBC as determined by the local institution, with metastatic disease documented by CT or MRI imaging, and currently have measurable disease by CT/MRI. […]\nEndpoints: Safety and tolerability of SG in combination with talazoparib was evaluated from adverse events, standard safety laboratories, physical examination, vital signs, and EKG. […]"}, "[1]": {"conditions": "veliparib in combination with topotecan; cited from earlier work"}, "[2]": {"test_system": "normal diploid cells (WI-38)", "assay": "In vitro cytotoxicity of sequential SG then talazoparib in normal diploid cells", "format": "cell-based", "method": "Cell Lines and Cell Culture: All cell lines were obtained from the MGH Center for Molecular Therapeutics cell bank in and underwent high-density SNP typing to confirm their identity. All experiments shown were performed within less than 6 months' passage of all lines since acquisition. Cells were maintained at 37° C. in 5% CO2. MDA-MB-468 cells were grown in RPMI (Lonza) supplemented with 10% FBS (SAFC), 1% penicillin (Gibco), streptomycin (Gibco). WI-38 cells were grown in DMEM (Lonza) supplemented with 10% FBS (SAFC), 1% penicillin (Gibco), streptomycin (Gibco).\nTROP2-expressing TNBC cells or normal diploid cells were exposed to SG, followed by washout, then PARPi treatment with Talazoparib."}, "[3]": {"molecular_target": "T1, TOP1 cleavage complexes (TOP1CC) (Homo sapiens, UniProt P11387)", "T1 construct": "endogenous in cells; host or cells: MDA-MB-468 breast cancer cells (immunofluorescence); TNBC cell models (RADAR)", "T1 sequence (P11387 1-765)": "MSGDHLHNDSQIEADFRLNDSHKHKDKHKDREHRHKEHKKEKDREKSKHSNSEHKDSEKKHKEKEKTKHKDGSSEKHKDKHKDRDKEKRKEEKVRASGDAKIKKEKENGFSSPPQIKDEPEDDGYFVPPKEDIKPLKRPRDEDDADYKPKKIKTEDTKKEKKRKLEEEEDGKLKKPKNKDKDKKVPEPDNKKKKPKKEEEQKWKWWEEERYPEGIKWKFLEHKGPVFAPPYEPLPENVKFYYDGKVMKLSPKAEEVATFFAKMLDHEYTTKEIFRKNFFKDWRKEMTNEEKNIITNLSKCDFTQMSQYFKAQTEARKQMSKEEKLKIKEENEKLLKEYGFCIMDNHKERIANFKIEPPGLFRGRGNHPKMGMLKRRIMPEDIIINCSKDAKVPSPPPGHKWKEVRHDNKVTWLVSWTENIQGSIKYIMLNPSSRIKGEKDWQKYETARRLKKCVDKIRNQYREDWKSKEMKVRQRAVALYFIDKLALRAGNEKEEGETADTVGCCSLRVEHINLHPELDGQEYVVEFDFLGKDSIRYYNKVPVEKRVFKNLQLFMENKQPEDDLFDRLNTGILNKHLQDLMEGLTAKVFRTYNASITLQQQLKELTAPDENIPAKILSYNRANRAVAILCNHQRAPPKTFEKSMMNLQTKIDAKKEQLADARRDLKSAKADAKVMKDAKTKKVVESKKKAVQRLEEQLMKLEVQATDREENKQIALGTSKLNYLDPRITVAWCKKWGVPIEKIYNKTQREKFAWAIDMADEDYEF", "assay": "TOP1CC detection by RADAR assay and immunofluorescence", "format": "cell-based", "method": "Modification of the RADAR assay for detection of TOP1CC: Detection of TOP1CC was performed according to the published protocol (PMID: 34408146) with minor modification. After SG and/or TZP treatment, 1×10^6 cells per condition were washed with 1×PBS and lysed with 600 μl DNAzol (Invitrogen) at 4° C. for 10 min, followed by precipitation with 300 μl 100% ethanol. The nucleic acids were collected by centrifugation at 15,000 rpm for 10 min at 4° C., washed with 75% ethanol twice and resuspended in 200 μl TE buffer. The samples were then heated at 65° C. for 15 min, followed by shearing with sonication (40% output for 10 s pulse and 10 s rest for four times). […] The concentration of the sample was quantified by NanoDrop. […]\nImmunofluorescence: To visualize TOP1CC by immunofluorescence, cells were plated into 96-well plates having #1.5 glass coverslips (Cellvis, P98-1.5H-N). […] Images were compiled and quantified using ImageJ software.\nWithout wishing to be bound by any theory, sequential PARPi is believed to enhance SG toxicity through stabilization of TOP1CC that persist following SG washout due to the high delivered SN38 concentration in tumor cells (FIG. 3A). TOP1CC was quantified by two methods: the RADAR (Rapid Approach to DNA Adduct Recovery) assay, which detects TOP1 covalently bound to DNA, and by immunofluorescence. […]"}, "[4]": {"test_system": "patients with previously treated mTNBC", "conditions": "phase III ASCENT; cited from earlier work"}, "[5]": {"test_system": "phosphorylated histone H2AX (γH2AX)", "assay": "Flow cytometry of phosphorylated histone H2AX (γH2AX)", "format": "cell-based", "method": "Flow Cytometry: For flow cytometry detection of γH2AX (also known as g-H2AX), 1×10^6 cells were collected and fixed with 4% paraformaldehyde at 4° C. for 20 min and then permeabilized with 0.25% Triton X-100 in PBS. After blocking with 2% BSA in PBS at 4° C. for 20 min, the cells were stained with Alexa Fluor® 488 conjugated anti-phospho Histone H2A.X antibody (EMD Millipore, clone JBW301, #05-636-AF488) at 4° C. for 1 h. The cells were then washed twice with 2% BSA in PBS and counterstained with DAPI (Abcam, #ab228549). For flow cytometry detection of apoptotic cells, 1×10^6 cells were collected, and the staining was performed by using eBioscience™ Annexin V Apoptosis Detection Kit APC (Invitrogen, #88-8007) according to manufacturer's instruction. Samples were examined using a FACSAria flow cytometer. […]\nWithout wishing to be bound by any theory, sequential PARPi is believed to enhance SG toxicity through stabilization of TOP1CC that persist following SG washout due to the high delivered SN38 concentration in tumor cells (FIG. 3A). TOP1CC was quantified by two methods: the RADAR (Rapid Approach to DNA Adduct Recovery) assay, which detects TOP1 covalently bound to DNA, and by immunofluorescence. […] Persistent TOP1CC are expected to lead to DNA damage including double-strand DNA breaks, which were quantified using flow cytometry to assess phosphorylated histone H2AX (γH2AX) staining. […]"}}}
{"compound": "O=C(c1cc(Cc2n[nH]c(=O)c3ccccc23)ccc1F)N1CCN(C(=O)C2CC2)CC1", "note": "[olaparib]", "values": [{"measurement": "toxicity of the combination with irinotecan", "setting": "colorectal cancer", "result": "higher-than-expected toxicities and considered intolerable"}, {"measurement": "tumor growth inhibition in combination with sacituzumab govitecan", "setting": "TNBC xenografts", "result": "Synthetic lethality and synergistic inhibition of tumor growth"}]}
{"compound": "CNCc1ccc(-c2[nH]c3cc(F)cc4c3c2CCNC4=O)cc1", "note": "[rucaparib]", "values": [{"measurement": "tumor growth inhibition in combination with sacituzumab govitecan", "setting": "TNBC xenografts", "result": "Synthetic lethality and synergistic inhibition of tumor growth"}]}
{"compound": "Cn1ncnc1[C@H]1c2n[nH]c(=O)c3cc(F)cc(c23)N[C@@H]1c1ccc(F)cc1", "note": "[talazoparib]", "values": [{"measurement": "recommended phase-2 dose (R2PD)", "setting": "patients with mTNBC; talazoparib on days 15-21 after SG", "result": 1, "unit": "mg"}, {"measurement": "tumor growth inhibition in combination with sacituzumab govitecan", "setting": "TNBC xenografts", "result": "Synthetic lethality and synergistic inhibition of tumor growth"}]}
{"compound": "CC[C@@]1(O)C(=O)OCc2c1cc1n(c2=O)Cc2cc3c(CN(C)C)c(O)ccc3nc2-1", "note": "[topotecan]", "values": [{"measurement": "MTD in the combination relative to single-agent MTD", "setting": "[1]", "result": 40, "unit": "%"}]}
{"compound": "C[C@]1(c2nc3c(C(N)=O)cccc3[nH]2)CCCN1", "note": "[veliparib]", "values": [{"measurement": "MTD in the combination relative to single-agent MTD", "setting": "[1]", "result": 3, "unit": "%"}]}
{"compound": "sacituzumab govitecan [SG]", "values": [{"measurement": "recommended phase-2 dose (R2PD)", "setting": "patients with mTNBC; sequential SG on days 1,8 with talazoparib", "result": 10, "unit": "mg/kg"}, {"measurement": "SG sensitivity (cytotoxicity)", "setting": "[2]", "result": "little SG sensitivity"}, {"measurement": "TOP1CC following SG washout", "setting": "[3]", "result": "resolved entirely within two hours"}, {"measurement": "median overall survival", "setting": "[4]", "result": 12.1, "unit": "months"}, {"measurement": "median progression-free survival", "setting": "[4]", "result": 5.6, "unit": "months"}, {"measurement": "DNA damage (γH2AX staining) after SG washout", "setting": "[5]", "result": "resolution of DNA damage within 24 hours"}]}
